Laboratory results as given in US8987287B2, “Spirocyclic morphinans and their use” (Purdue Pharma L.P., priority 2012, dated 2015).

Assays:
[1] = target: T1, μ-opioid receptor (Homo sapiens (Human), UniProt P35372); assay: μ-opioid receptor radioligand ([3H]-diprenorphine) dose-displacement binding assay; conditions: binding affinity, read-out: Opioid Receptor Ki (nM) μ
Protocol: μ-Opioid Receptor Binding Assay Procedures: Radioligand dose-displacement binding assays for μ-opioid receptors used 0.3 nM [^3H]-diprenorphine (Perkin Elmer, Shelton, Conn.), with […] membrane protein/well in a final volume of 500 μl binding buffer (10 mM MgCl2, 1 mM EDTA, 5% DMSO, 50 mM HEPES, pH 7.4). Reactions were carried out in the absence or presence of increasing concentrations of unlabeled naloxone. All reactions were conducted in 96-deep well polypropylene plates for 2 hours at room temperature. Binding reactions were terminated by rapid filtration onto 96-well Unifilter GF/C filter plates (Perkin Elmer, Shelton, Conn.), presoaked in 0.5% polyethylenimine using a 96-well tissue harvester (Perkin Elmer, Shelton, Conn.) followed by performing three filtration washes with 500 μl of ice-cold binding buffer. Filter plates were subsequently dried at 50° C. for 2-3 hours. BetaScint scintillation cocktail (Perkin Elmer, Shelton, Conn.) was added (50 μl/well), and plates were counted using a Packard Top-Count for 1 min/well. The data were analyzed using the one-site competition curve fitting functions in GraphPad PRISM™ v. 3.0 or higher (San Diego, Calif.), or an in-house function for one-site competition curve-fitting.
In TABLE 1, binding affinity of certain Compounds of the Invention to the μ-, δ- and κ-opioid receptors was determined as described above.

[2] = target: T1, μ-opioid receptor; assay: μ-opioid receptor [35S]GTPγS functional assay, HEK-293 or CHO cells; assay type: biochemical; conditions: for Emax: relative to DAMGO, HEK-293 or CHO cells
Protocol: μ-Opioid Receptor Functional Assay Procedures: [^35S]GTPγS functional assays were conducted using freshly thawed μ-receptor membranes prepared in-house from a cell line expressing recombinant μ opioid receptor in a HEK-293, CHO or U-2 OS cell background, or purchased from a commercial source (Perkin Elmer, Shelton, Conn.; or DiscovRx, Fremont, Calif.). Assay reactions were prepared by sequentially adding the following reagents to binding buffer (100 mM NaCl, 10 mM MgCl2, 20 mM HEPES, pH 7.4) on ice (final concentrations indicated): membrane protein (0.026 mg/mL), saponin ([…]), GDP ([…]) and [^35S]GTPγS (0.20 nM; Perkin Elmer, Shelton, Conn.). The prepared membrane solution (190 μl/well) was transferred to 96-shallow well polypropylene plates containing 10 μl of 20× concentrated stock solutions of the agonist [D-Ala^2, N-methyl-Phe^4 Gly-ol^5]-enkephalin (DAMGO) prepared in dimethyl sulfoxide (DMSO). Plates were incubated for 30 min at about 25° C. with shaking. Reactions were terminated by rapid filtration onto 96-well Unifilter GF/B filter plates (Perkin Elmer, Shelton, Conn.) using a 96-well tissue harvester (Perkin Elmer, Shelton, Conn.) followed by three filtration washes with 200 μl of ice-cold wash buffer (10 mM NaH2PO4, 10 mM Na2HPO4, pH 7.4). Filter plates were subsequently dried at 50° C. for 2-3 hours. BetaScint scintillation cocktail (Perkin Elmer, Shelton, Conn.) was added (50 μl/well) and plates were counted using a Packard Top-Count for 1 min/well. Data were analyzed using the sigmoidal dose-response curve fitting functions in GraphPad PRISM v. 3.0, or an in-house function for non-linear, sigmoidal dose-response curve-fitting.
μ-Opioid Receptor Functional Data: μ GTP EC50 is the concentration of a compound providing 50% of the maximal response for the compound at a μ-opioid receptor.
μ GTP Emax (%) is the maximal effect elicited by a compound relative to the effect elicited by DAMGO, a standard μ agonist. Generally, the μ GTP Emax (%) value measures the efficacy of a compound to treat or prevent pain or other Conditions.
In TABLE 2, activity response of certain Compounds of the Invention to the μ-, δ- and κ-opioid receptors was determined as described above for functional assays using HEK-293 or CHO cells.

SMILES	Ki [1]	EC50 [2]	Emax [2]
O=C1NC(=O)[C@@]2(CC[C@@]3(O)[C@H]4Cc5ccc(O)cc5[C@@]3(CCN4CC3CC3)C2)N1 [Compound 3, (4bR,4′S,8aS,9R)-11-(cyclopropylmethyl)-3,8a-dihydroxy-5,7,8,8a,9,10-hexahydrospiro[9,4b-(epiminoethano)phenanthrene-6,4′-imidazolidine]-2′,5′-dione]	15.9 ± 3.02 nM	> 20 µM	10.6 ± 7.11%
O=C1NC[C@@]2(CC[C@@]3(O)[C@H]4Cc5ccc(O)cc5[C@@]3(CCN4CC3CC3)C2)N1 [Compound 5, (4bR,4′S,8aS,9R)-11-(cyclopropylmethyl)-3,8a-dihydroxy-5,7,8,8a,9,10-hexahydrospiro[9,4b-(epiminoethano)phenanthrene-6,4′-imidazolidin]-2′-one]	3.55 ± 0.77 nM	> 20 µM	-1%
